Source: patent publication US20070128217A1 (priority 2003, published 2007)

What was measured:
[1] = tested on: antibodies in sera from SARS patients (sera 1a, 1b, 2, 6, 37, 62, London, SARS-yellow, SARS-green); type: binding, human; parameters: Binding of serum 6 to linear peptides of protein X1 of SARS-CoV Urbani / Binding of serum 37 to linear peptides of protein X1 of SARS-CoV Urbani / Binding of serum 6 to looped/cyclic peptide (PEPSCAN-ELISA) / Binding of serum 37 to looped/cyclic peptide (PEPSCAN-ELISA) / Binding of serum 37 to looped/cyclic peptides of protein X1 of SARS-CoV Urbani / Binding of serum 6 to linear peptides of protein X2 / Binding of serum 37 to linear peptides of protein X2 / Binding of serum 37 to looped/cyclic peptides of protein X2 of SARS-CoV Urbani / Binding of serum 6 to linear peptides of protein M of SARS-CoV Urbani / Binding of serum 37 to linear peptides of protein M of SARS-CoV Urbani / Binding of serum 6 to looped/cyclic peptides of protein M of SARS-CoV Urbani / Binding of serum 37 to looped/cyclic peptides of protein M of SARS-CoV Urbani / Binding of serum 6 to linear peptides of protein X3 of SARS-CoV Urbani / Binding of serum 37 to linear peptides of protein X3 of SARS-CoV Urbani / Binding of serum 37 to looped/cyclic peptides of protein X3 of SARS-CoV Urbani / Binding of serum 6 to linear peptides of protein X4 of SARS-CoV Urbani / Binding of serum 37 to linear peptides of protein X4 of SARS-CoV Urbani / Binding of serum 37 to looped/cyclic peptides of protein X4 of SARS-CoV Urbani / Binding of serum 6 to linear peptides of protein X5 of SARS-CoV Urbani / Binding of serum 37 to linear peptides of protein X5 of SARS-CoV Urbani / Binding of serum 37 to looped/cyclic peptides of protein X5 of SARS-CoV Urbani / Binding of serum 6 to linear peptides of protein N of SARS-CoV Urbani / Binding of serum 37 to linear peptides of protein N of SARS-CoV Urbani / Binding of serum 6 to linear peptide (PEPSCAN-ELISA) / Binding of serum 1a to looped/cyclic peptides of protein N of SARS-CoV Urbani / Binding of serum 1b to looped/cyclic peptides of protein N of SARS-CoV Urbani / Binding of serum 2 to looped/cyclic peptides of protein N of SARS-CoV Urbani / Binding of serum 6 to looped/cyclic peptides of protein N of SARS-CoV Urbani / Binding of serum 37 to looped/cyclic peptides of protein N of SARS-CoV Urbani / Binding of serum 62 to looped/cyclic peptides of protein N of SARS-CoV Urbani / Binding of serum London to looped/cyclic peptides of protein N of SARS-CoV Urbani / Binding of serum SARS-green to looped/cyclic peptides of protein N of SARS-CoV Urbani: unit not given here
[2] = tested on: control sera (pooled serum of ten healthy LUMC hospital workers; commercial negative donor pooled serum from the Dutch bloodbank); type: binding, human; parameters: Binding of Control serum LUMC to linear peptides / Binding of Control serum Blood-bank to linear peptides / Binding of Control serum LUMC to looped peptides / Binding of Control Serum Blood-Bank to Looped peptides / Binding of Control serum LUMC to linear peptides of the protein M of SARS-CoV Urbani / Binding of Control serum Blood-bank to linear peptides of the protein M of SARS-CoV Urbani / Binding of Control serum LUMC to looped peptides of the protein M of SARS-CoV Urbani / Binding of Control Serum Blood-Bank to Looped peptides of the protein M of SARS-CoV Urbani: unit not given here
[3] = tested on: rabbit serum obtained by immunizing a rabbit with the SARS-CoV strain Frankfurt 1; type: binding; parameters: Binding of a rabbit serum to linear peptides / Binding of a rabbit serum to looped peptides / Rabbit serum linear peptides / Rabbit serum looped peptides / Binding of a rabbit serum to linear peptides of protein N of SARS-CoV Urbani (Rabbit serum linear peptides) / Binding of a rabbit serum to looped/cyclic peptides of protein N of SARS-CoV Urbani (Rabbit serum looped peptides): unit not given here
[4] = tested on: recombinant human anti-SARS-CoV antibody 03-018; type: binding; parameters: Binding of antibody 03-018 to linear peptides of the N protein of SARS-CoV Urbani / Binding of antibody 03-018 to looped/cyclic peptides of the N protein of SARS-CoV Urbani: unit not given here

QIGYYRRATRRVRGG was tested, and the “Binding of serum 1a to linear peptides of protein N of SARS-CoV Urbani” value [1] was 0.3, the “Binding of serum 1a to looped/cyclic peptides of protein N of SARS-CoV Urbani” value [1] was 0.3 and the “Binding of serum 1b to linear peptides of protein N of SARS-CoV Urbani” value [1] was 0.1. For the same sequence, the “Binding of serum 1b to looped/cyclic peptides of protein N of SARS-CoV Urbani” value [1] was 0.2, the “Binding of serum 2 to linear peptides of protein N of SARS-CoV Urbani” value [1] was 0.2 and the “Binding of serum 2 to looped/cyclic peptides of protein N of SARS-CoV Urbani” value [1] was 0.4. The “Binding of serum 6 to linear peptides of protein N of SARS-CoV Urbani” value [1] was 0.2, the “Binding of serum 6 to looped/cyclic peptides of protein N of SARS-CoV Urbani” value [1] was 0.3 and the “Binding of serum 37 to linear peptides of protein N of SARS-CoV Urbani” value [1] was 0.6. For the same sequence, the “Binding of serum 37 to looped/cyclic peptides of protein N of SARS-CoV Urbani” value [1] was 0.7, the “Binding of serum 62 to linear peptides of protein N of SARS-CoV Urbani” value [1] was 0.6 and the “Binding of serum 62 to looped/cyclic peptides of protein N of SARS-CoV Urbani” value [1] was 0.6. The “Binding of serum London to linear peptides of protein N of SARS-CoV Urbani” value [1] was 0.5, the “Binding of serum London to looped/cyclic peptides of protein N of SARS-CoV Urbani” value [1] was 0.4 and the “Binding of serum SARS-green to linear peptides of protein N of SARS-CoV Urbani” value [1] was 0.2. The “Binding of serum SARS-green to looped/cyclic peptides of protein N of SARS-CoV Urbani” value [1] was 0.4, the “Binding of serum SARS-yellow to linear peptides of protein N of SARS-CoV Urbani” value [1] was 0.6 and the “Binding of serum SARS-yellow to looped/cyclic peptides of protein N of SARS-CoV Urbani” value [1] was 0.6. For the same sequence, the “Binding of Control Serum Blood-Bank to Looped peptides” value [2] was 0.8, the “Binding of Control serum Blood-bank to linear peptides” value [2] was 0.8 and the “Binding of Control serum LUMC to linear peptides” value [2] was 0.6. For the same sequence, the “Binding of Control serum LUMC to looped peptides” value [2] was 0.7, the “Recognition of the peptide by the rabbit serum” value [3] was “recognized” and the “Binding of antibody 03-018 to linear peptides of the N protein of SARS-CoV Urbani” value [4] was 0.1. For the same sequence, the “Binding of antibody 03-018 to looped/cyclic peptides of the N protein of SARS-CoV Urbani” value [4] was 0.2.
For QLQNSMSGASADSTQ, the “Binding of serum 1a to linear peptides of protein N of SARS-CoV Urbani” value [1] was 0.2, the “Binding of serum 1a to looped/cyclic peptides of protein N of SARS-CoV Urbani” value [1] was 0.3 and the “Binding of serum 1b to linear peptides of protein N of SARS-CoV Urbani” value [1] was 0.1. The “Binding of serum 1b to looped/cyclic peptides of protein N of SARS-CoV Urbani” value [1] was 0.1, the “Binding of serum 2 to linear peptides of protein N of SARS-CoV Urbani” value [1] was 0.2 and the “Binding of serum 2 to looped/cyclic peptides of protein N of SARS-CoV Urbani” value [1] was 0.4. The “Binding of serum 6 to linear peptides of protein N of SARS-CoV Urbani” value [1] was 0.1, the “Binding of serum 6 to looped/cyclic peptides of protein N of SARS-CoV Urbani” value [1] was 0.1 and the “Binding of serum 37 to linear peptides of protein N of SARS-CoV Urbani” value [1] was 0.7. For the same sequence, the “Binding of serum 37 to looped/cyclic peptides of protein N of SARS-CoV Urbani” value [1] was 0.4, the “Binding of serum 62 to linear peptides of protein N of SARS-CoV Urbani” value [1] was 0.5 and the “Binding of serum 62 to looped/cyclic peptides of protein N of SARS-CoV Urbani” value [1] was 0.1. For the same sequence, the “Binding of serum London to linear peptides of protein N of SARS-CoV Urbani” value [1] was 0.6, the “Binding of serum London to looped/cyclic peptides of protein N of SARS-CoV Urbani” value [1] was 0.3 and the “Binding of serum SARS-green to linear peptides of protein N of SARS-CoV Urbani” value [1] was 0.3. For the same sequence, the “Binding of serum SARS-green to looped/cyclic peptides of protein N of SARS-CoV Urbani” value [1] was 0.1, the “Binding of serum SARS-yellow to linear peptides of protein N of SARS-CoV Urbani” value [1] was 0.6 and the “Binding of serum SARS-yellow to looped/cyclic peptides of protein N of SARS-CoV Urbani” value [1] was 0.1. The “Control Serum Blood-Bank Looped peptides” value [2] was 0.5, the “Control serum Blood-bank linear peptides” value [2] was 0.8 and the “Control serum LUMC linear peptides” value [2] was 0.6. For the same sequence, the “Control serum LUMC looped peptides” value [2] was 0.4, the “Binding of a rabbit serum to linear peptides of protein N of SARS-CoV Urbani (Rabbit serum linear peptides)” value [3] was 0.7 and the “Binding of a rabbit serum to looped/cyclic peptides of protein N of SARS-CoV Urbani (Rabbit serum looped peptides)” value [3] was 0.5. The “Binding of antibody 03-018 to linear peptides of the N protein of SARS-CoV Urbani” value [4] was 0.1 and the “Binding of antibody 03-018 to looped/cyclic peptides of the N protein of SARS-CoV Urbani” value [4] was 0.2.
